Data: US20050250137A1, “Molecular targets of cancer and aging” (priority 2002, published 2005)

What was measured:
[1] = tested on: immortal (high passage) MDAH041 cells; assay type: cell-based, human
[2] = tested on: normal skin fibroblast cell line 1502 (CRL-1502); assay: Q-RT-PCR gene expression, normal fibroblasts 1502 treated or untreated with 5-aza-CdR; assay type: cell-based, human; conditions: before and after 5azaCdR

Nc1ncn([C@H]2C[C@H](O)[C@@H](CO)O2)c(=O)n1 [5-aza-dC, 5-aza-2′-deoxycytidine]
(2-5′) oligoadenylate synthetase E gene OAS1 expression, MDAH041HP vs. MDAH0411HP 5aza [1]: 1072↑ fold | ALDH1A3 expression, IM vs 5-aza-dC, QP [1]: 7.84 fold | CIG49 expression, MDAH041HP vs. MDAH0411HP 5aza [1]: 204↑ fold | CLTB expression, IM vs 5-aza-dC, QP [1]: 2.04 fold | CREG expression, IM vs 5-aza-dC, QP [1]: 2.88 fold | HSPA2 expression, IM vs 5-aza-dC, QP [1]: 2.74 fold | IGFBP3 expression, IM vs 5-aza-dC, QP [1]: 8.29 fold | IGFBP4 expression, IM vs 5-aza-dC, QP [1]: 7.00 fold | Interferon-induced 17-kDa/15-kDA expression, MDAH041HP vs. MDAH0411HP 5aza [1]: 443↑ fold | Interferon-inducible 56 kDa protein expression, MDAH041HP vs. MDAH0411HP 5aza [1]: 1807↑ fold | Interferon-inducible membrane protein 9-27 (IFITM1) expression, MDAH041HP vs. MDAH0411HP 5aza [1]: 278↑ fold | Interferon-inducible protein p78 expression, MDAH041HP vs. MDAH0411HP 5aza [1]: 480↑ fold | Interferon-regulatory factor 7B expression, MDAH041HP vs. MDAH0411HP 5aza [1]: 20031↑ fold | KIAA1750 expression, IM vs 5-aza-dC, QP [1]: 3.86 fold | MGSF expression, MDAH041HP vs. MDAH0411HP 5aza [1]: 800↑ fold | MIF expression, MDAH041HP vs. MDAH0411HP 5aza [1]: 130↑ fold | NDN expression, MDAH041HP vs. MDAH0411HP 5aza [1]: 10↑ fold | OPTN expression, IM vs 5-aza-dC, QP [1]: 9.21 fold | SERPINB2 expression, IM vs 5-aza-dC, QP [1]: 12.90 fold | STAT 1, 91 kD expression, MDAH041HP vs. MDAH0411HP 5aza [1]: 158↑ fold | STAT1α expression, IM vs 5-aza-dC, QP [1]: 119.85 fold | TNFAIP2 expression, IM vs 5-aza-dC, QP [1]: 6.10 fold | additional increase in hTERT RNA expression [1]: 17 fold | (2-5′) oligoadenylate synthetase E gene OAS1 expression, 1502 vs. 1502 5aza ([2]; ↑ increase): 2↑ fold | CIG49 expression, 1502 vs. 1502 5aza ([2]; ↑ increase): 1.1↑ fold | Interferon-induced 17-kDa/15-kDA expression, 1502 vs. 1502 5aza ([2]; ↑ increase): 1.8↑ fold | Interferon-inducible protein p78 expression, 1502 vs. 1502 5aza ([2]; ↑ increase): 1.8↑ fold | Interferon-regulatory factor 7B expression, 1502 vs. 1502 5aza ([2]; ↑ increase): 1.5↑ fold | STAT 1, 91 kD expression, 1502 vs. 1502 5aza ([2]; ↑ increase): 1.8↑ fold | Interferon-inducible 56 kDa protein expression, 1502 vs. 1502 5aza ([2]; ↓ decrease): 1.2↓ fold | Interferon-inducible membrane protein 9-27 (IFITM1) expression, 1502 vs. 1502 5aza ([2]; ↓ decrease): 1.8↓ fold | MGSF expression, 1502 vs. 1502 5aza ([2]; ↓ decrease): 3.2↓ fold | MIF expression, 1502 vs. 1502 5aza ([2]; ↓ decrease): 1.7↓ fold | NDN expression, 1502 vs. 1502 5aza ([2]; ↓ decrease): 1.4↓ fold
